Test results as given in patent US6660728B2, “Thienyl substituted acylguanidines as inhibitors of bone resorption and vitronectin receptor antagonists” (Aventis Pharma Deutschland GmbH, priority 1998, dated 2003).

How the values were obtained:
[1] = biological target: T1, Human Vitronectin Receptor (VnR) αvβ3 (Homo sapiens, UniProt P05106+P06756); assay: K/VnR test: inhibition of the binding of kistrin to human vitronectin receptor (ELISA)
T1 construct: Human vitronectin receptor was isolated from human placenta using the method of Pytela et al; from tissue; host or cells: human placenta
T1 sequence (P06756 31-889 limits assumed): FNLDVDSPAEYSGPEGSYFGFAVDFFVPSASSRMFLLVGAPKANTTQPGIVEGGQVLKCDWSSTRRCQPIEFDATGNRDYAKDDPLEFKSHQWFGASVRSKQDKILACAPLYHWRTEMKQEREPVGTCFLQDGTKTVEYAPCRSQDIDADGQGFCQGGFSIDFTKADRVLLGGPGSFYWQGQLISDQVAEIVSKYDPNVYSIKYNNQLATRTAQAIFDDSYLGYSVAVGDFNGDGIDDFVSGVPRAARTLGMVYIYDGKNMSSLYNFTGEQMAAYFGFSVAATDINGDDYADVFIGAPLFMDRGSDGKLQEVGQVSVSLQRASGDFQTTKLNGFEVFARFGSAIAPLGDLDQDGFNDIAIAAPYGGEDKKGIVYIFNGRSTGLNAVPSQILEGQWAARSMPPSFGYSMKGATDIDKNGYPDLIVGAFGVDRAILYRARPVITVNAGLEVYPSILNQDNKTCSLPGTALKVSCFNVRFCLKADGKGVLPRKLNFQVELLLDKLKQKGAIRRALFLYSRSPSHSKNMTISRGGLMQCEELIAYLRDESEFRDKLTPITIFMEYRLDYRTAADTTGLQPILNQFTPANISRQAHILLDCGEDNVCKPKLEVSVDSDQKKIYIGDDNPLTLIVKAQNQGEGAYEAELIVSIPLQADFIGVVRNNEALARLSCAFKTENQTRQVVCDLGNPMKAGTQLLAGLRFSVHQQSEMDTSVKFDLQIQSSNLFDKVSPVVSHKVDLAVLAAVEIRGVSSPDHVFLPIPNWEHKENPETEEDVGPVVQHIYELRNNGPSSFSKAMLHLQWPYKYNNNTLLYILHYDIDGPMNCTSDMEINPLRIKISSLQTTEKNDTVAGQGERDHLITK
T1 sequence (P06756 891-1048 limits assumed): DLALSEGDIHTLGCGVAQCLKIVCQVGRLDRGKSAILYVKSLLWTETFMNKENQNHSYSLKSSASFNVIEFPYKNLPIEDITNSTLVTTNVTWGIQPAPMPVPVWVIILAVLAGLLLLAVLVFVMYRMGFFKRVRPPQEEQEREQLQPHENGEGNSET
T1 sequence (P05106 27-788): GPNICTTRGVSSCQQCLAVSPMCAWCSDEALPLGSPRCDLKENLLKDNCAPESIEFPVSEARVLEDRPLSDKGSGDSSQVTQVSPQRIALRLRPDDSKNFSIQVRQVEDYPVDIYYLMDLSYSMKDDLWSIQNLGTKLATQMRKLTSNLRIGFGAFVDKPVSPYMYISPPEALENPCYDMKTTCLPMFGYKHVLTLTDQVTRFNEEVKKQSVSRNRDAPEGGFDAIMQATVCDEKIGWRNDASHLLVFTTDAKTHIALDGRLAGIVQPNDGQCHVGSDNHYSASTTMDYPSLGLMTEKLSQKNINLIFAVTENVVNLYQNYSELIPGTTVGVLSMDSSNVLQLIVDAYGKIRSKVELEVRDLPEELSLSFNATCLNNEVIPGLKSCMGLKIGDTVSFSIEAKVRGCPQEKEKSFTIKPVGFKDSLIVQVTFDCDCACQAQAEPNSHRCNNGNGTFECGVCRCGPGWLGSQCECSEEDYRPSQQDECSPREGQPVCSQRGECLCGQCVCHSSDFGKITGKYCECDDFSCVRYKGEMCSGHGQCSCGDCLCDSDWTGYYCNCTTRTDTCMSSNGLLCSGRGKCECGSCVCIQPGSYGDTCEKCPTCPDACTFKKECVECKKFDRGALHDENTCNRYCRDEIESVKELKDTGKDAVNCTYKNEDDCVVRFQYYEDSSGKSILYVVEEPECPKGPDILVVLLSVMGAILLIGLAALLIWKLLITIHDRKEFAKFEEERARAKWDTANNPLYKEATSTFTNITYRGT

| SMILES | melting point | IC50 [1] [µM] |
| --- | --- | --- |
| CC(C)COC(=O)[C@H](CNC(=O)c1ccc(CCC(=O)NC2=NCCCN2)s1)NC(=O)OCC12CC3CC(CC(C3)C1)C2 | 210 °C (dec.) | – |
| O=C(/C=C/c1ccc(C(=O)NC[C@H](NC(=O)OCc2ccccc2)C(=O)O)s1)NC1=NCCCN1 [Example 14, (2S)-2-Benzyloxycarbonylamino-3-((5-(2-(1,4,5,6-tetrahydropyrimidin-2-ylcarbamoyl)-vinyl)-thiophene-2-carbonyl)-amino)-propionic Acid] | – | > 10 |
| O=C(O)C[C@H](NC(=O)c1ccc(CCC(=O)NC2=NCCCN2)s1)c1ccc2c(c1)OCO2 | 130 °C | – |
| CC(C)OC(=O)[C@H](CNC(=O)c1ccc(CCC(=O)NC2=NCCCN2)s1)NC(=O)OCC12CC3CC(CC(C3)C1)C2 | 160 °C (dec.) | – |
